Results from ChEMBL document CHEMBL2094269, “WEHI/Eskitis Trypanosoma b. brucei screening data”.

Experiments:
Trypanosoma cruzi = test: DNDI: Inhibition of Chagas Disease parasite Trypanosoma cruzi (Tulahuen LacZ, Clone C4), in vitro.; format: functional, organism-based
[1] = DNDI: Cytotoxicity against L-6 rat myoblasts from skeletal muscle.; format: toxicity, cell-based, Muscle tissue, L6; details: L-6 rat skeletal muscle myoblast cells
[2] = DNDI: Cytotoxicity against human MRC-5 lung fibroblast cells.; details: IC50
[3] = tested on: Trypanosoma brucei brucei; test: microbe, parasite or virus in culture; format: functional, organism-based, STIB 795; details: Trypanosoma brucei, STIB 795
Description: DNDI: Inhibition of Human African Trypanosomiasis (HAT), STIB 795, in vitro

[4] = tested on: Trypanosoma brucei rhodesiense; test: DNDI: Inhibition of Human African Trypanosomiasis (HAT), STIB 900, in vitro; format: functional, organism-based
Leishmania donovani = test: DNDI: Inhibition of formation of Leishmania donovani (strain MHOM/ET/67/L82) axenic amastigotes, in vitro.; format: functional, organism-based
Plasmodium falciparum = test: DNDI: Inhibition of the malaria parasite Plasmodium falciparum, in vitro; format: functional, organism-based; details: K1

| IC50 (Trypanosoma cruzi) | IC50 [3] | IC50 [4] | IC50 (Leishmania donovani) | IC50 (Plasmodium falciparum) | SMILES | IC50 [1] | IC50 [2] |
| --- | --- | --- | --- | --- | --- | --- | --- |
| 4.5 µM | 0.435 µM | 1.42 µM | 0.143 µM | 2.39 µM | Cc1cc(=O)[nH]c(-n2nc(C)cc2NC(=O)C2CCCC2)n1 | 0.265 µM | > 10.4 µM |
| 0.709 µM | 0.441 µM | 0.451 µM | 14.1 µM | 10.8 µM | CC(C)(C)C(=O)NCCc1csc(-c2cccc(F)c2)n1 | 19.1 µM | > 41.7 µM |
| 5.87 µM | 1.3 µM | 5.81 µM | 2.63 µM | 5.02 µM | CCS(=O)(=O)N1CCCc2ccc(NS(=O)(=O)c3ccccc3F)cc21 | 8.64 µM | > 41.7 µM |
| 6.35 µM | 1.93 µM | 2.22 µM | 15.5 µM | 7.85 µM | O=C(NCCc1n[nH]c(-c2ccc(F)cc2)n1)c1cccc(F)c1 | 39.2 µM | > 41.7 µM |
| 31.2 µM | 0.681 µM | 0.333 µM | 83.9 µM | 2.02 µM | CCc1ccccc1/N=C(\NCCN1CCOCC1)NC(=O)c1ccccc1 | 50.3 µM | > 41.7 µM |
